Assays:
[1] = system: Respiratory Syncytial Virus (RSV) long strain (ATCC#VR-26); assay: RSV Antiviral Assay (CPE reduction assay); assay type: cell-based; conditions: human respiratory syncytial virus, 120 h; HEp-2 cells infected with RSV long strain, 5 days, CCK-8 readout; bins (Table 2: less than 1 μM; Table 3: equal to or higher than 1 μM and less than 50 μM); read-out: 50% effective concentration (EC50)
Method in brief: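 Cytopathic-effect protection measured after 5 days at 37 °C, 5% CO2 via CCK-8 dehydrogenase readout at 450 nm (630 nm reference), EC50 regressed from mean O.D. Host HEp-2 cells received RSV long strain at 100 TCID50/well; compound 9-point ⅓ series starting 100 μM or 1 μM, 1% DMSO, duplicate wells.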

[2] = Cytotoxicity Determination; assay type: cell-based; conditions: human, HEp-2 cells, without addition of virus, CCK-8 readout, bins (Table 4: greater than 100 μM; Table 5: equal to or less than 100 μM and greater than 10 μM), read-out: 50% cytotoxicity concentration (CC50)
Method in brief: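 CC50 was derived from CCK-8 optical density after a 3-4 h reagent incubation. Before that, cells without virus had been treated for 5 days at 37 °C, 5% CO2 with compound at seven ½-step final concentrations from 100 μM, in duplicate wells.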

| SMILES | EC50 [1] | CC50 at 5 days [2] |
| --- | --- | --- |
| CCNc1ccc(C(=O)NCC(=O)N/N=C(\C)c2csc3ccccc23)cc1 [Compound 501] | 1 to 50 µM | 10 to 100 µM |
| CCOc1ccc(C(=O)NCC(=O)N/N=C(\C)c2csc3ccccc23)cc1OC [Compound 502] | < 1 µM | > 100 µM |
| CCN(CC)c1cccc(C(=O)NCC(=O)N/N=C(\C)c2csc3ccccc23)c1 [Compound 503] | 1 to 50 µM | > 100 µM |
| CCN(CC)c1cc(C(=O)NCC(=O)N/N=C(\C)c2csc3ccccc23)ccc1OC [Compound 504] | 1 to 50 µM | 10 to 100 µM |
| CCOc1ccc(C(=O)NCC(=O)N/N=C(\C)c2csc3ccccc23)cc1N(CC)CC [Compound 505] | 1 to 50 µM | 10 to 100 µM |
| CCNc1ccc(C(=O)NCC(=O)N/N=C(\C)c2csc3ccccc23)cc1OC [Compound 508] | 1 to 50 µM | > 100 µM |
| CCOc1cc(C(=O)NCC(=O)N/N=C(\C)c2csc3ccccc23)ccc1N(CC)CC [Compound 509] | 1 to 50 µM | 10 to 100 µM |
| COc1cc(C(=O)NCC(=O)N/N=C(\C)c2csc3ccccc23)ccc1OCC1CC1 [Compound 510] | < 1 µM | 10 to 100 µM |
| CCN(CC)c1cc(C(=O)NCC(=O)N/N=C(\C)c2csc3ccccc23)cs1 [Compound 511] | 1 to 50 µM | 10 to 100 µM |
| CCN(C)c1ccc(C(=O)NCC(=O)N/N=C(\C)c2csc3ccccc23)cc1OC [Compound 512] | 1 to 50 µM | 10 to 100 µM |
| COCCOc1ccc(C(=O)NCC(=O)N/N=C(\CCOC)c2csc3c(F)cccc23)cc1OC [Compound 513] | < 1 µM | > 100 µM |
| COCC/C(=N\NC(=O)CNC(=O)c1ccc(OC2COC2)c(OC)c1)c1csc2c(F)cccc12 [Compound 514A] | < 1 µM | > 100 µM |
| COCC/C(=N/NC(=O)CNC(=O)c1ccc(OC2COC2)c(OC)c1)c1csc2c(F)cccc12 [Compound 514B] | < 1 µM | > 100 µM |
| COc1cc(C(=O)NCC(=O)N/N=C(\C)c2csc3ccccc23)ccc1OCCO [Compound 600] | < 1 µM | > 100 µM |
| CCCC/C(=N/NC(=O)CNC(=O)c1ccc(OCCO)c(OC)c1)c1csc2c(F)cccc12 [Compound 602] | < 1 µM | > 100 µM |
| COCC/C(=N\NC(=O)CNC(=O)c1ccc(OCCO)c(OC)c1)c1csc2c(F)cccc12 [Compound 603A] | < 1 µM | > 100 µM |
| COCC/C(=N/NC(=O)CNC(=O)c1ccc(OCCO)c(OC)c1)c1csc2c(F)cccc12 [Compound 603B] | < 1 µM | > 100 µM |
| COc1cc(C(=O)NCC(=O)N/N=C/c2csc3c(F)cccc23)ccc1OCCO [Compound 604] | < 1 µM | > 100 µM |
| COc1cc(C(=O)NCC(=O)N/N=C(\CC2CCCCC2)c2csc3c(F)cccc23)ccc1OCCO [Compound 605] | < 1 µM | 10 to 100 µM |
| COc1cc(C(=O)NCC(=O)N/N=C(/CC2CCCCC2)c2csc3c(F)cccc23)ccc1OCCO [Compound 606] | 1 to 50 µM | 10 to 100 µM |
| COc1cc(C(=O)NCC(=O)N(C)/N=C(\C)c2csc3c(F)cccc23)ccc1OCCO [Compound 651] | < 1 µM | > 100 µM |
| COc1ccc(C(=O)NCC(O)c2ccnc(-c3csc4c(F)cccc34)n2)cc1OC (stereo not shown) [Compound 839, N-(2-(2-(7-fluorobenzo[b]thiophen-3-yl)pyrimidin-4-yl)-2-hydroxyethyl)-3,4-dimethoxy-benzamide] | 1 to 50 µM | > 100 µM |
| COc1ccc(C(=O)NCC(=O)c2ccnc(-c3csc4c(F)cccc34)n2)cc1OC [Compound 840] | 1 to 50 µM | > 100 µM |
| CCOc1ccc(C(=O)NCC(=O)Nc2nc3cc(Cl)ccc3n2CCOC)cc1OC [Compound 911] | 1 to 50 µM | 10 to 100 µM |
| COc1ccc(C(=O)NCC(=O)N2CCC(c3csc4c(F)cccc34)=N2)cc1OC [Compound 1100] | 1 to 50 µM | 10 to 100 µM |

| SMILES | EC50 [1] | CC50 at 5 days [2] |
| --- | --- | --- |
| COc1cc(C(=O)NCC(=O)N2CCCC(c3csc4c(F)cccc34)=N2)ccc1OCCO [Compound 1101] | < 1 µM | > 100 µM |
| COc1ccc(C(=O)NCC(=O)c2cc(C(C)C)cc(-c3csc4c(F)cccc34)n2)cc1OC [Compound 1200] | < 1 µM | > 100 µM |
| COc1ccc(C(=O)NCC(=O)c2cccc(-c3csc4c(F)cccc34)n2)cc1OC [Compound 1202] | 1 to 50 µM | > 100 µM |
| CCCn1nc(C(=O)CNC(=O)c2ccc(OC)c(OC)c2)nc1-c1csc2c(F)cccc12 [Compound 1205] | 1 to 50 µM | 10 to 100 µM |
| COc1ccc(C(=O)NCC(=O)c2nc(-c3csc4c(F)cccc34)cs2)cc1OC [Compound 1206] | 1 to 50 µM | 10 to 100 µM |
| COc1cc(C(=O)NCC(=O)c2cccc(-c3csc4c(F)cccc34)n2)ccc1OCCO [Compound 1209] | < 1 µM | 10 to 100 µM |
| COc1ccc(C(=O)NCC(=O)c2csc(-c3csc4c(F)cccc34)n2)cc1OC [Compound 1210] | 1 to 50 µM | > 100 µM |
| COc1ccc(C(=O)NCC(=O)c2cc(C)cc(-c3csc4c(F)cccc34)n2)cc1OC [Compound 1211] | < 1 µM | > 100 µM |
| COc1cc(C(=O)CNC(=O)c2ccc(OCCO)c(OC)c2)nc(-c2csc3c(F)cccc23)c1 [Compound 1213] | < 1 µM | > 100 µM |
| COc1cc(C(=O)CNC(=O)c2ccc(OCCN)c(OC)c2)nc(-c2csc3c(F)cccc23)c1 [Compound 1214] | < 1 µM | 10 to 100 µM |
| COc1cc(C(=O)CNC(=O)c2ccc(OCCCO)c(OC)c2)nc(-c2csc3c(F)cccc23)c1 [Compound 1216] | < 1 µM | 10 to 100 µM |
| COc1cc(C(=O)NCC(=O)c2cc(C)cc(-c3csc4c(F)cccc34)n2)ccc1OCCO [Compound 1217] | < 1 µM | > 100 µM |
| COc1ccc(C(=O)NCC(=O)c2cccc(-c3csc4c(F)cccc34)c2)cc1OC [Compound 1218] | 1 to 50 µM | > 100 µM |
| CNc1cc(C(=O)CNC(=O)c2ccc(OC)c(OC)c2)nc(-c2csc3c(F)cccc23)c1 [Compound 1220] | < 1 µM | > 100 µM |
| COc1ccc(C(=O)NCC(=O)c2cc(N(C)C)cc(-c3csc4c(F)cccc34)n2)cc1OC [Compound 1221] | < 1 µM | > 100 µM |
| COc1cc(C(=O)NCC(=O)c2cccc(-c3csc4c(F)cccc34)n2)ccc1OCCCCO [Compound 1223] | 1 to 50 µM | 10 to 100 µM |
| COc1cc(C(=O)NCC(=O)c2cccc(-c3csc4c(F)cccc34)n2)ccc1OC1CCOCC1 [Compound 1224] | 1 to 50 µM | > 100 µM |
| COc1cc(C(=O)NCC(=O)c2cccc(-c3csc4c(F)cccc34)n2)ccc1O[C@H]1CC[C@@H](O)CC1 [Compound 1225] | 1 to 50 µM | > 100 µM |
| COc1cc(C(=O)NCC(=O)c2cccc(-c3csc4c(F)cccc34)n2)ccc1O [Compound 1226] | 1 to 50 µM | 10 to 100 µM |
| COc1cc(C(=O)NCC(=O)c2cc(C(C)C)cc(-c3csc4c(F)cccc34)n2)ccc1OCCO [Compound 1227] | < 1 µM | 10 to 100 µM |
| COc1ccc(C(=O)NCC(=O)c2cn(C)c(-c3csc4c(F)cccc34)n2)cc1OC [Compound 1228] | 1 to 50 µM | 10 to 100 µM |
| O=C(NCC(=O)c1cccc(-c2csc3c(F)cccc23)n1)c1ccc(OCCO)c(O)c1 [Compound 1230] | 1 to 50 µM | 10 to 100 µM |
| COc1cc(C(=O)NCC(=O)c2ccc(OC)c(-c3csc4c(F)cccc34)n2)ccc1OCCN [Compound 1232] | < 1 µM | 10 to 100 µM |
| C=C(C)c1cc(C(=O)CNC(=O)c2ccc(OC)c(OC)c2)nc(-c2csc3c(F)cccc23)c1 [Compound 1237] | < 1 µM | 10 to 100 µM |
| COc1ccc(C(=O)NCC(=O)c2cc(C=C(C)C)cc(-c3csc4c(F)cccc34)n2)cc1OC [Compound 1238] | 1 to 50 µM | > 100 µM |

From patent US9724351B2, “Compounds for the treatment of paramoxyvirus viral infections” (priority 2012, dated 2017)
